According to PubChem BioAssay (NCI):
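Compound exposure: 48 hours, 5 concentrations, 96-well plates. GI50 marks 50% less growth. TGI: concentration producing complete growth inhibition.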

Key:
Experiment in all cases: NCI-60 cell line screen, 48 h
[1] = system: EKVX NSCLC
[2] = system: HCT-116 colon
[3] = system: K-562 leukemia
[4] = system: MOLT-4 leukemia
[5] = system: SF-268 CNS
[6] = system: SF-295 CNS
[7] = system: SNB-75 CNS
[8] = system: T-47D breast
[9] = system: U251 CNS
[10] = system: LOX IMVI melanoma

For `Cc1[nH]c2ccccc2c1CO`, the GI50 [1] was 20.9 µM, the TGI [1] was 70.7 µM and the GI50 [2] was 15.2 µM. For the same molecule, the TGI [2] was 28.5 µM, the GI50 [3] was 18.6 µM and the TGI [3] was 61.4 µM. It also gave a GI50 [4] of 25.1 µM, a TGI [4] of 91.6 µM and a GI50 [5] of 10.2 µM. It also gave a TGI [5] of 22.9 µM, a GI50 [6] of 22.5 µM and a TGI [6] of 44.7 µM. It also gave a GI50 [7] of 7.33 µM, a TGI [7] of 39.3 µM and a GI50 [8] of 29.3 µM. It also gave a TGI [8] of over 100 µM, a GI50 [9] of 21.2 µM and a TGI [9] of 43.9 µM.

Molecule `CCOc1ccc(-c2nc3ccc(-c4nc5ccc(N6CCN(C)CC6)cc5[nH]4)cc3[nH]2)cc1` has a GI50 [1] of 0.658 µM, a TGI [1] of 3.1 µM and a GI50 [2] of 0.0397 µM. For the same molecule, the TGI [2] was 0.26 µM, the GI50 [3] was 0.696 µM and the GI50 [10] was 0.188 µM. It also gave a TGI [10] of 0.485 µM, a GI50 [4] of 0.299 µM and a TGI [4] of 1.81 µM. It also gave a GI50 [5] of 0.361 µM, a TGI [5] of 1.67 µM and a GI50 [6] of 0.518 µM. For the same molecule, the TGI [6] was 2.63 µM, the GI50 [7] was 0.131 µM and the TGI [7] was 0.354 µM. It also gave a GI50 [8] of 0.299 µM, a TGI [8] of 2.2 µM and a GI50 [9] of 0.155 µM. The TGI [9] was 1.05 µM.

`CCOC(=O)Cc1csc(NC(=O)C(OC(=O)c2ccc(Cl)cc2)c2ccccc2)n1` (configuration not stated) showed a GI50 [1] of 59.6 µM, a TGI [1] of over 100 µM and a GI50 [2] of 29 µM. For the same molecule, the TGI [2] was over 100 µM, the GI50 [3] was 27.1 µM and the TGI [3] was over 100 µM. It also gave a GI50 [10] of 33.6 µM, a TGI [10] of over 100 µM and a GI50 [4] of 26 µM. It also gave a TGI [4] of over 100 µM, a GI50 [5] of 28.7 µM and a TGI [5] of over 100 µM. For the same molecule, the GI50 [6] was 24.6 µM, the TGI [6] was 56.8 µM and the GI50 [7] was 26.1 µM. For the same molecule, the TGI [7] was 95.1 µM, the GI50 [8] was 63.1 µM and the TGI [8] was over 100 µM. It also gave a GI50 [9] of 45.3 µM and a TGI [9] of over 100 µM.

With `Cn1cnc([N+](=O)[O-])c1S(=O)(=O)Oc1ccc(Cl)cc1` the GI50 [1] was 19.1 µM, the TGI [1] was 49.6 µM and the GI50 [2] was 8.59 µM. The TGI [2] was 21.8 µM, the GI50 [3] was 2.99 µM and the TGI [3] was 10.2 µM. For the same molecule, the GI50 [10] was 1.73 µM, the TGI [10] was 3.57 µM and the GI50 [4] was 2.25 µM. It also gave a TGI [4] of 5.26 µM, a GI50 [5] of 15.7 µM and a TGI [5] of 38.1 µM. For the same molecule, the GI50 [6] was 25.2 µM, the TGI [6] was over 100 µM and the GI50 [7] was 14.1 µM. For the same molecule, the TGI [7] was 29.7 µM, the GI50 [8] was 2.21 µM and the TGI [8] was 6.3 µM. The GI50 [9] was 16.6 µM and the TGI [9] was 55.8 µM.

In the case of `Oc1nc(N2CCOCC2)sc1/C=C1\C=Nc2ccccc21`, the GI50 [1] is reported as over 100 µM, the TGI [1] is reported as over 100 µM and the GI50 [2] is reported as over 100 µM. For the same molecule, the TGI [2] was over 100 µM, the GI50 [3] was over 100 µM and the TGI [3] was over 100 µM. For the same molecule, the GI50 [10] was over 100 µM, the TGI [10] was over 100 µM and the GI50 [4] was over 100 µM. For the same molecule, the TGI [4] was over 100 µM, the GI50 [5] was over 100 µM and the TGI [5] was over 100 µM. For the same molecule, the GI50 [6] was over 100 µM, the TGI [6] was over 100 µM and the GI50 [7] was 64.8 µM. It also gave a TGI [7] of over 100 µM, a GI50 [8] of over 100 µM and a TGI [8] of over 100 µM. It also gave a GI50 [9] of over 100 µM and a TGI [9] of over 100 µM.

`N#Cc1c(N)nc2c(c1-c1ccc(Cl)cc1)COc1ccc(F)cc1-2` was tested, and the GI50 [1] was 22 µM, the TGI [1] was 63.3 µM and the GI50 [2] was 36.8 µM. For the same molecule, the TGI [2] was over 100 µM, the GI50 [3] was 15.5 µM and the TGI [3] was 34.1 µM. The GI50 [10] was 18.4 µM, the TGI [10] was 40.2 µM and the GI50 [4] was 22.2 µM. For the same molecule, the TGI [4] was 44.6 µM, the GI50 [5] was 37.1 µM and the TGI [5] was over 100 µM. It also gave a GI50 [6] of 16 µM, a TGI [6] of 37.1 µM and a GI50 [7] of over 100 µM. For the same molecule, the TGI [7] was over 100 µM, the GI50 [8] was 43.7 µM and the TGI [8] was over 100 µM. It also gave a GI50 [9] of 31.7 µM and a TGI [9] of over 100 µM.

`ClCc1ccccc1Cn1cnc2nc(Cl)nc(Cl)c21` gave a GI50 [1] of 0.62 µM, a TGI [1] of 1.54 µM and a GI50 [2] of 0.115 µM. For the same molecule, the TGI [2] was 0.236 µM, the GI50 [3] was 0.239 µM and the TGI [3] was 2.95 µM. For the same molecule, the GI50 [10] was 0.137 µM, the TGI [10] was 0.301 µM and the GI50 [4] was 1.49 µM. The TGI [4] was 4.09 µM, the GI50 [5] was 0.379 µM and the TGI [5] was over 49.4 µM. For the same molecule, the GI50 [6] was 9.28 µM, the TGI [6] was 32.3 µM and the GI50 [7] was 1.6 µM. It also gave a TGI [7] of 3.43 µM, a GI50 [8] of 0.59 µM and a TGI [8] of 5.24 µM. The GI50 [9] was 0.414 µM and the TGI [9] was 1.47 µM.

Molecule `COC(=O)c1c2c(c(C)[n+]([O-])c1C)C(=O)C(NCc1ccccc1)=CC2=O` has a GI50 [1] of 2.09 µM, a TGI [1] of 5.41 µM and a GI50 [2] of 2.47 µM. For the same molecule, the TGI [2] was 9.48 µM, the GI50 [3] was 2.94 µM and the TGI [3] was 16.3 µM. The GI50 [10] was 2.72 µM, the TGI [10] was 10.2 µM and the GI50 [4] was 2.21 µM. It also gave a TGI [4] of 5.6 µM, a GI50 [5] of 2.81 µM and a TGI [5] of 9.69 µM. It also gave a GI50 [6] of 2.6 µM, a TGI [6] of 7.5 µM and a GI50 [7] of 3.62 µM. It also gave a TGI [7] of 13.9 µM, a GI50 [8] of 1.88 µM and a TGI [8] of 5.35 µM. The GI50 [9] was 2.46 µM and the TGI [9] was 7.11 µM.

Work on `OCc1ccc(-c2nc(-c3ccc4c(c3)OCO4)c(-c3ccccn3)[nH]2)cc1` yielded a GI50 [1] of over 25 µM, a TGI [1] of over 25 µM and a GI50 [2] of over 25 µM. For the same molecule, the TGI [2] was over 25 µM, the GI50 [3] was over 25 µM and the TGI [3] was over 25 µM. It also gave a GI50 [10] of 19 µM, a TGI [10] of over 25 µM and a GI50 [4] of over 25 µM. For the same molecule, the TGI [4] was over 25 µM, the GI50 [5] was over 25 µM and the TGI [5] was over 25 µM. For the same molecule, the GI50 [6] was over 25 µM, the TGI [6] was over 25 µM and the GI50 [7] was over 7.04 µM. It also gave a TGI [7] of over 25 µM, a GI50 [8] of over 23.2 µM and a TGI [8] of over 25 µM. It also gave a GI50 [9] of over 25 µM and a TGI [9] of over 25 µM.

In the case of `Clc1ccc(-c2cnc3c(-c4ccnc(N5CCNCC5)c4)cnn3c2)cc1`, the GI50 [1] is reported as 1.83 µM, the TGI [1] is reported as 3.5 µM and the GI50 [2] is reported as 1.71 µM. The TGI [2] was 3.09 µM, the GI50 [3] was 1.84 µM and the TGI [3] was 3.74 µM. For the same molecule, the GI50 [10] was 1.91 µM, the TGI [10] was 3.48 µM and the GI50 [4] was 1.75 µM. The TGI [4] was 3.7 µM, the GI50 [5] was 1.91 µM and the TGI [5] was 3.69 µM. The GI50 [6] was 1.88 µM, the TGI [6] was 3.57 µM and the GI50 [7] was 1.56 µM. It also gave a TGI [7] of 2.91 µM, a GI50 [8] of 1.82 µM and a TGI [8] of 3.8 µM. For the same molecule, the GI50 [9] was 1.89 µM and the TGI [9] was 3.51 µM.

Work on `Oc1ccc(N=Nc2ccc(Br)cc2)c(O)c1` yielded a GI50 [1] of 3.86 µM, a TGI [1] of 38.7 µM and a GI50 [2] of 3.25 µM. For the same molecule, the TGI [2] was 14.1 µM, the GI50 [3] was 1.31 µM and the TGI [3] was 3.75 µM. It also gave a GI50 [10] of 8.05 µM, a TGI [10] of 61.1 µM and a GI50 [4] of 1.94 µM. The TGI [4] was 5.56 µM, the GI50 [5] was 5.84 µM and the TGI [5] was over 100 µM. The GI50 [6] was 2.64 µM, the TGI [6] was 11.5 µM and the GI50 [7] was 2.79 µM. The TGI [7] was 21.8 µM, the GI50 [8] was 2.93 µM and the TGI [8] was 42.3 µM. The GI50 [9] was 3.59 µM and the TGI [9] was 24.8 µM.

`CCOC(=O)c1c(NN2CCN(CC(F)(F)F)CC2)oc(/C=C2\C=Nc3ncccc32)c1O` was tested, and the GI50 [1] was 11.1 µM, the TGI [1] was 33.2 µM and the GI50 [2] was 2.09 µM. It also gave a TGI [2] of 17.7 µM, a GI50 [3] of 2.14 µM and a TGI [3] of over 100 µM. It also gave a GI50 [10] of 2.28 µM, a TGI [10] of 11.8 µM and a GI50 [4] of 2.79 µM. For the same molecule, the TGI [4] was 9.37 µM, the GI50 [5] was 3.04 µM and the TGI [5] was 16.1 µM. For the same molecule, the GI50 [6] was 8.47 µM, the TGI [6] was 37.4 µM and the GI50 [7] was 0.325 µM. For the same molecule, the TGI [7] was 11.6 µM, the GI50 [8] was 5.08 µM and the TGI [8] was 34.8 µM. It also gave a GI50 [9] of 4.01 µM and a TGI [9] of 28 µM.
